Assays:
[1] = Randomized crossover quantitative trial: plasma pharmacokinetics of nine ingredients after rikkunshito 2.5, 5.0 or 7.5 g; conditions: for AUC(0-t) / Cmax / Tmax / half-life: human, plasma, po; for AUC(0-t): AUC0-last; for AUC(0-t) / Cmax / half-life / t 1/2: geometric mean (95% CI); for Cmax: C max; for Tmax: Median t max (range)
Outline: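 Healthy Japanese adults (20–45 y, BMI 18–25), fasted 12 h before and 4 h after dosing, received single oral rikkunshito 2.5, 5.0 or 7.5 g in a randomized open-label three-period crossover. Plasma sampled 0–48 h; ingredients quantified by LC–MS/MS or GC–MS.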

[2] = system: ghrelin secretion; conditions: cited from earlier work
[3] = system: cisplatin-induced anorexia model; conditions: oral administration; cisplatin-induced anorexia model; cited from earlier work
[4] = Formation of ingredients derived from rikkunshito in formulation, blood, and urine (S11 Table summary); conditions: after rikkunshito administration, per ingredient in the formulation
[5] = system: 5-HT2BR; parameters: method as in PMID 18439428; conditions: cited from earlier work
[6] = 2.5 g, rikkunshito 2.5 g single oral, n = 21
[7] = 5 g, rikkunshito 5.0 g single oral, n = 19
[8] = 7.5 g, rikkunshito 7.5 g single oral, n = 19

COc1ccc(-c2oc3c(OC)c(OC)c(OC)c(OC)c3c(=O)c2OC)cc1OC [Heptamethoxyflavone, 3,3′,4′,5,6,7,8-heptamethoxyflavone]
AUC(0-t) [1, 6]: 0.0849 ng·h/mL | Cmax [1, 6]: 0.0388 ng/mL | Tmax ([1]; 2.5 g, rikkunshito 2.5 g single oral, n = 21, median (minimum–maximum)): 0.5 h | half-life ([1]; 2.5 g, t 1/2, rikkunshito 2.5 g single oral, n = 21): 1.92 h | AUC(0-t) [1, 7]: 0.124 ng·h/mL | Cmax [1, 7]: 0.0582 ng/mL | Tmax ([1]; 5 g, rikkunshito 5.0 g single oral, n = 19, median (minimum–maximum)): 1 h | half-life ([1]; 5 g, t 1/2, rikkunshito 5.0 g single oral, n = 19): 1.5 h | AUC(0-t) [1, 8]: 0.225 ng·h/mL | Cmax [1, 8]: 0.105 ng/mL | Tmax ([1]; 7.5 g, rikkunshito 7.5 g single oral, n = 19, median (minimum–maximum)): ≤ 1 h | t 1/2 ([1]; rikkunshito 7.5 g single oral, n = 19): 1.51 (1.15–1.98) h | t 1/2 ([1]; rikkunshito 7.5 g single oral, n = 19, listed as heptamethoxyflavone): < 10 h | Median t max (range) ([1]; rikkunshito 7.5 g single oral, n = 19, median (minimum–maximum)): 1.00 (0.250–1.02) h | Known pharmacology activities: ghrelin secretion [2]: Ghrelin secretion promoting activity [14, 15] | Acylated ghrelin level in blood [3]: suppressed the decrease of the acylated ghrelin level in blood in a concentration-dependent manner | Formation of ingredients: form found in Blood [4]: Heptamethoxyflavone | Formation of ingredients: form found in Urine ([4]; BQL = below the quantification limit): BQL | 5-HT2BR inhibitory/antagonistic activity [5]: most potent 5-HT2BR antagonistic activity among all rikkunshito ingredients
